Patent publication US20140363530A1, “COMPOSITION COMPRISING THE EXTRACT OF PINE TREE LEAF OR THE COMPOUNDS ISOLATED THEREFROM FOR THE PREVENTION AND TREATMENT OF CANCER DISEASE BY INHIBITING HPV VIRUS AND THE USES THEREBY” (priority 2012, published 2014)
In brackets after ≈: the same amount, converted by molar mass. Where two headings read alike, the source gives them in different places.

Assays:
[1] = test system: SK-OV-3 (human ovarian tumor); assay: SRB cytotoxicity test, SK-OV-3; format: cell-based
Description: (§1) To determine the cytotoxicity against human tumor cell line of the test samples prepared in Examples, following sulforhodamin B (SRB) bioassy test was performed according to the method disclosed in the literature (Skehan, P., et al., J. Natl. Cancer Inst., 82, 1990, 1107-1112).
(§2) Various human tumor cell lines, i.e., A-549 (human adenocarcinoma of lung, NCI), SK-OV-3 (human ovarian tumor, NCI), SK-MEL-2 (human malignant melanoma, NCI), HCT15 (human colon adenocarcinoma, NCI), MES-SA (human uterine carcinoma, NCI) and MES-SA/DX5 (multidrug resistant carcinoma subline of MES-SA, NCI) were used in the test.
(§3) The subcultured cell lines were detached from the surface of wall using by trypsin-EDTA solution and adjusted to various concentration of cell lines, i.e., 5×10^3 cells/well (A-549, HCT15), 1×10^4 cells/well (SK-MEL-2), 5×10^3 cells/well (SK-OV-3) in 96-well flat bottom microplate. The inoculated cell lines were incubated in CO2 incubator (MCO-20AIC, SANYO Electric Co., LTd.) to be attached on the bottom of incubator and the culture media was removed with aspirator. 6 logarithmic concentrations of the diluted test samples were added to each well containing cell line at 100 μl/well in a three fold dilution manner and the cell was incubated for 48 hours. The culture media in each well was removed and 100μ of 10% trichloroacetic acid was added thereto to be left alone at 4° C. for 1 hour and to fix the cells to the bottom of the plates. […] The cell plates were shaked with titer plate shaker (KOMA Orbital Shaker KE011, KOMABIOTech) for 10 mins to exude the staining solution and to determine the absorbance at 520 nm using by microplate spectrophotometer (Sunrise, TECAN).

[2] = test system: A-549 (human adenocarcinoma of lung); assay: SRB cytotoxicity test, A-549; format: cell-based
Description: as §1, §2, §3

[3] = test system: HCT15 (human colon adenocarcinoma); assay: SRB cytotoxicity test, HCT15; format: cell-based; details: for IC50: Homo sapiens, HCT-15, 48 h, read-out: Cytotoxicity IC50, HCT15
Description: as §1, §2, §3

[4] = test system: SK-MEL-2 (human malignant melanoma); assay: SRB cytotoxicity test, SK-MEL-2; format: cell-based
Description: as §1, §2, §3

[5] = test system: MES-SA (human uterine carcinoma); assay: SRB cytotoxicity test, MES-SA; format: cell-based; details: for IC50: Homo sapiens, MES-SA, 48 h, read-out: Cytotoxicity IC50, MES-SA
Description: as §1, §2, §3

HPV16 PVs = assay: Virus inhibition test (in vitro), SEAP activity of 293TT cells infected with HPV pseudovirion; format: cell-based; details: Human papillomavirus 16, read-out: inhibitory activity from HPV16 PVs
Description: Prior to in vitro antiviral assay, 5×10^3 of 293TT cell was seeded on 96-well plate and incubated at 37° C. for 16 hours in 5% CO2 atmosphere. The culture media was removed and each extract was diluted to the concentration of 100 μg/ml or 50 μg/ml to distribute into each cell at the dose of 100 μl/cell. After treating with the extract for 16 hours, the culture media was removed and the cell was washed with PBS twice. The cell was infected by 106RLU/ml of HPV PVs at the dose of 100 μl/cell and incubated for 48 hours at 37° C. in 5% CO2 atmosphere. To determine the viral activity, the supernatant of the cell culture was used for determine the activity of secreted alkaline phosphatase (SEAP) using by Great EscAPE™ SEAP Chemiluminescence Kit (631738, Clontech, CA, USA). To determine the SEAP activity, relative light units (RLU) value was obtained using by Luminescence coulter (Micro beta triLux 1450, PerkinElmer, CT, USA) and the RLU values of the cell treated with the extract and untreated with the extract, were compared with each other. The decrease of SEAP activity was regarded as the inhibition effect against HPV PVs.
To determine the inhibitory effect on luciferase-comprising HPV virus contagion of the test samples prepared in Examples, following test was performed according to the method disclosed in the literature (Shaneyfelt et al., Virology Journal, 3:68, 2006, 1-11; Roden et al., J. Virol., 70, 1996, 5875-5883; Unckell et al., J. Virol., 71, 1997, 2934-2939; Touze et al., Nucleic Acids Research, 26, 1998, 1317-1323; Selinka et al., J. Virol., 77, 2003, 12961-12967; Klasse et al., Journal of General Virology, 83, 2002, 2091-2108)
5×10^3293TT cell was seeded on 96-well plate and incubate for 16 hours. 50 μg of test sample was mixed with the culture media in the concentration of 100 ug/ml and incubated for 16 hours. The media was washed with 100 μl of PBS twice and the cell was infected with 10^6RLU/ml of HPV pseudovirion at the dose of 100 μl/cell to incubate at 37° C., for 48 hours in 5% CO2 atmosphere.
5× lysis buffer in Great EscAPE™ SEAP Chemiluminescence Kit (631738, Clontech, CA, USA) was made to 1× and both of 45 μl of 1× lysis buffer and 15 μl of cell culture medium were added to 96-well plate (3912, Costar, NY, USA). 60 μl of the substrate in Great EscAPE™ SEAP Chemiluminescence kit was added thereto and the relative light units (RLU) value was obtained using by Luminescence coulter (Micro beta triLux 1450, PerkinElmer, CT, USA). The RLU values of the cell treated with the extract and untreated with the extract, were compared with each other and the decrease of SEAP activity was regarded as the inhibition effect against HPV PVs.

[6] = test system: MES-SA/DX5 (multidrug resistant carcinoma subline of MES-SA); assay: SRB cytotoxicity test, MES-SA/DX5; format: cell-based, human; details: for IC50: Homo sapiens, MES-SA/Dx5, 48 h
Description: as §1, §2, §3

HCT15/CL02 = assay: SRB cytotoxicity test, HCT15/CL02; format: cell-based, human; details: Table 4, 48 hours; for IC50: Homo sapiens, HCT-15
Description: To determine the cytotoxicity against human tumor cell line of the test samples prepared in Examples, following sulforhodamin B (SRB) bioassy test was performed according to the method disclosed in the literature (Skehan, P., et al., J. Natl. […] The inoculated cell lines were incubated in CO2 incubator (MCO-20AIC, SANYO Electric Co., LTd.) to be attached on the bottom of incubator and the culture media was removed with aspirator. 6 logarithmic concentrations of the diluted test samples were added to each well containing cell line at 100 μl/well in a three fold dilution manner and the cell was incubated for 48 hours. […] The cell plates were shaked with titer plate shaker (KOMA Orbital Shaker KE011, KOMABIOTech) for 10 mins to exude the staining solution and to determine the absorbance at 520 nm using by microplate spectrophotometer (Sunrise, TECAN).

[7] = read-out: Cytotoxicity IC50, MES-SA/DX5

Row | Compound | Cytotoxicity IC50, HCT15 [3] | inhibition at 50 µg/mL (HPV16 PVs) | IC50 [6, 7] | IC50 ([5]; Table 4, 48 hours) | IC50 ([3]; Table 4, 48 hours) | IC50 (HCT15/CL02) | other results
1 | 9,14-dihydroxytotara-7-ene-8-oic acid [compound (a)] | 117.31 µg/mL | – | – | – | – | – | Cytotoxicity IC50, SK-OV-3 [1]: 120.05 µg/mL; Cytotoxicity IC50, A-549 [2]: 127.16 µg/mL; Cytotoxicity IC50, SK-MEL-2 [4]: 99.45 µg/mL
2 | C=C[C@]1(C)CCC2[C@@]3(C)CCC[C@@](C)(CO)C3CC[C@@]2(C)O1 (single isomer, unassigned; ent-18) [compound (h), ent-18-hydrorxy-13-epimanoyl oxide] | – | 70 to 80% | 9.54 µg/mL (≈ 31.1 µM) | – | – | – | IC50 ([5]; Table 3, 48 hours): 8.17 µg/mL (≈ 26.7 µM); IC50 ([1]; Homo sapiens, SK-OV-3, Table 3, 48 hours, read-out: Cytotoxicity IC50, SK-OV-3): 12.7 µg/mL (≈ 41.4 µM); IC50 ([2]; Homo sapiens, A549, Table 3, 48 hours, read-out: Cytotoxicity IC50, A-549): 13.3 µg/mL (≈ 43.5 µM); IC50 ([3]; Table 3, 48 hours): 10 µg/mL (≈ 32.8 µM); IC50 ([4]; Homo sapiens, SK-MEL-2, Table 3, 48 hours, read-out: Cytotoxicity IC50, SK-MEL-2): 11.3 µg/mL (≈ 36.7 µM)
3 | C=C1CCC2[C@](C)(C(=O)O)CCC[C@]2(C)[C@H]1CC[C@H](C)CCO (stereo partly drawn) [compound (b), (13S)-15-hydroxylabd-8(17)-en-18-oic acid] | – | 70 to 80% | 11.5 µg/mL (≈ 35.7 µM) | 19.1 µg/mL (≈ 59.1 µM) | 20.2 µg/mL (≈ 62.5 µM) | 12.8 µg/mL (≈ 39.8 µM) | –
4 | C=C1CCC2C(C)(C(=O)O)CCCC2(C)C1CCC(C)CC(=O)O (stereo not drawn) [compound (c), ent-labd-8(17)-ene-15,18-dioic acid] | >30.0 µg/mL | – | – | – | – | – | Cytotoxicity IC50, MES-SA [5]: >30.0 µg/mL; Cytotoxicity IC50, HCT15/CL02 (HCT15/CL02): 21.47 µg/mL; Cytotoxicity IC50, MES-SA/DX5 ([6]; Table 4, 48 hours): >30.0 µg/mL
5 | C=C1CCC2[C@](C)(C(=O)O)CCC[C@]2(C)[C@H]1/C=C/C(C)=O (stereo partly drawn) [compound (d), 13-oxo-15,16-dinorlabda-8(17),11E-dien-19-oic acid] | – | 70 to 80% | – | > 30 µg/mL | > 30 µg/mL | 27.6 µg/mL (≈ 95.2 µM) | IC50 ([6]; read-out: Cytotoxicity IC50, MES-SA/DX5, Table 4, 48 hours): > 30 µg/mL
6 | C[C@@]1(C(=O)O)CCC[C@]2(C)c3ccc(O)cc3CCC12 (stereo partly drawn) [compound (e), 13-hydroxy-8,11,13-podocarpatrien-18-oic acid] | – | 70 to 80% | 25.8 µg/mL (≈ 94.2 µM) | > 30 µg/mL | > 30 µg/mL | 26.4 µg/mL (≈ 96.1 µM) | –
